“Also recorded” adds a separate entry of the source.
What was measured:
[1] = tested on: hypoxia-induced pulmonary hypertension mouse model; test: Hypoxia-induced pulmonary hypertension mouse model (RVSP, right ventricular hypertrophy); assay type: in vivo; settings: 10% O2 hypoxia, day 28
Method: Eight-week-old male C57BL6/J mice (n=8 per group) were administered sanguinarine (5 mg/kg/day, daily for 28 days, oral administration). A product available from SSX (Cat. No. 1845, Sanguinarine Chloride 10 mg) was used as sanguinarine. A preparation method for a test solution for a treatment group was as follows: sanguinarine was first dissolved at 100 μg/μl in 100% DMSO and the solution was further dissolved in phosphate buffered saline (PBS) so that the final concentration of sanguinarine was 1 μg/μl. A test solution for a control group was prepared by dissolving DMSO at the same concentration in PBS (1% DMSO).
From the test starting day, the mice were bred under a 10% O2 hypoxic environment to generate a hypoxia-induced pulmonary hypertension mouse model. From the same day, the test solutions for the control group and the treatment group were directly administered into the stomachs of the mice once daily through the use of a probe for mice. Regarding doses, the mice were measured for their body weights daily during a test period, and doses were calculated separately for the mice so as to achieve 5 mg/kg/day.
An administration period (=hypoxic breeding period) was 28 days.
After daily administration for 28 days, pulmonary hemodynamics and right ventricular hypertrophy were assessed at the end point (on day 28 after the start of hypoxic stimulation). The assessment of pulmonary hemodynamics was performed by directly measuring right ventricular systolic pressure (RVSP) with a pressure measurement catheter (Transonic Scisense) inserted into the right jugular vein. In addition, the assessment of right ventricular hypertrophy was performed by measuring right ventricular free wall (RV) weight in a dissected heart tissue to calculate its ratio to left ventricle plus septum (LV+Septum) weight (RV/(LV+Septum)). RV/(LV+Septum) serves as an indicator of right ventricular hypertrophy. A larger numerical value for RV/(LV+Septum) indicates a higher degree of right ventricular hypertrophy. In addition, in order to assess pulmonary vascular remodeling, staining for α-smooth muscle actin (α-SMA) in a lung tissue section was performed on day 28. Pulmonary vascular remodeling was assessed by performing immunostaining for α-smooth muscle actin (α-SMA) in a lung tissue section and quantitatively assessing the extent of muscularization (classified into three stages, i.e., non-muscularization, partial muscularization, and full muscularization) of α-SMA-positive distal pulmonary arteries. Specifically, in each section, about 100 pulmonary arteries having diameters of from 20 μm to 70 μm were each assessed for a double elastic lamina. In this assessment, a pulmonary artery in which a double elastic lamina including an internal elastic lamina and an external elastic lamina was visible for less than 50% of the entire periphery of the pulmonary artery was considered non-muscularized, a pulmonary artery in which the double elastic lamina was visible for 50% or more and less than 100% of the entire periphery of the pulmonary artery was considered partially muscularized, and a pulmonary artery in which the double elastic lamina was visible throughout the entire periphery of the pulmonary artery was considered fully muscularized.
Eight-week-old male C57BL6/J mice (n=8 per group) were administered cinobufotalin (5 mg/kg/day, daily for 28 days, intraperitoneal administration). A product available from Sigma (Cat. No. C1147-10MG, Cinobufotalin 10 mg) was used as cinobufotalin. A preparation method for a test solution for a treatment group was as follows: cinobufotalin was first dissolved at 30 μg/μl in 100% DMSO and the solution was further dissolved in PBS so that the final concentration of cinobufotalin was 0.3 μg/μl. A test solution for a control group was prepared by dissolving DMSO at the same concentration in PBS (1% DMSO). […]

SeP = SeP protein levels in lungs of Sugen/hypoxia rats; assay type: in vivo, rat; settings: 5 mg/kg oral for 28 days, hypoxia+SU5416 rats
Method: (§1) Rats (Sprague-Dawley, male, 7- to 10-week-old) were injected subcutaneously with a VEGF-receptor inhibitor SU5416 (Sigma-Aldrich) (20 mg per kg body weight) under isoflurane anesthesia and were then exposed to hypoxia (10% O2) for 3 weeks (hypoxia+SU5416). On day 21, the rats were randomized to be orally administered sanguinarine (5 mg per kg body weight) or vehicle under normoxia (21% O2) for 4 weeks. The vehicle administration group is expressed as vehicle controls. In addition, rats injected with saline on day 1 and exposed to normoxia for 7 weeks were used as (normoxic) controls. […] On day 49, the rats were anesthetized with isoflurane (1.0%) to measure RVSP, RVH, and pulmonary vascular remodeling. Thus, the development of PH was assessed.
FIG. 10(D) includes an image and graph for showing quantification of SeP protein levels in normoxic control rats or hypoxia+SU5416 rats with or without sanguinarine treatment. Data represent the mean±SEM. *p<0.05. Comparisons of parameters were performed with one-way or two-way ANOVA and Tukey's HSD test for multiple comparisons.

[2] = Body weight and food consumption in Sugen/hypoxia rats; assay type: in vivo, rat; settings: 5 mg/kg oral for 28 days
Method: as §1
FIG. 10(B) is a graph for showing the time-course of body weight from the starting point of administration of sanguinarine or vehicle for 4 weeks in Sugen/hypoxia rats (n=12). Data represent the mean±SEM.

selenoprotein P protein = test: Western blotting of selenoprotein P protein in lungs of hypoxia-induced pulmonary hypertension mice; assay type: in vivo, mouse; settings: C57BL/6 mice, 5 mg/kg/day oral, daily for 28 days, 10% hypoxia
Method: In addition, regarding sanguinarine, C57BL/6 mice (n=8 per group) were administered sanguinarine (5 mg/kg/day, daily for 28 days, oral administration). At the same time, the mice were bred under a 10% hypoxic environment. Thus, a hypoxia-induced pulmonary hypertension mouse model was generated and investigated.

Sugen/hypoxia rat model = test: Sugen/hypoxia-induced pulmonary hypertension rat model (RVSP, RVH); assay type: in vivo; settings: 5 mg/kg oral for 28 days, started day 21 after hypoxia+SU5416
Method: In this test, littermates or vehicle treatment groups were used as controls. A Sugen/hypoxia-induced hypertension rat model was used to assess pulmonary hypertension (PH) (Non-patent Literature 4). In order to assess the development of pulmonary hypertension, right ventricular systolic pressure (RVSP) and right ventricular hypertrophy (RVH) were measured (Non-patent Literatures 4 to 6).
For right heart catheterization, a 1.4-F (for rats) pressure measurement catheter (Transonic Scisense) was inserted into the right jugular vein and advanced into the right ventricle to measure RVSP (Non-patent Literature 7).
In the Sugen/hypoxia model, rats (Sprague-Dawley, male, 7- to 10-week-old) were injected subcutaneously with a VEGF-receptor inhibitor SU5416 (Sigma-Aldrich, St Louis, Mo.) (20 mg per kg body weight) under isoflurane anesthesia and were then exposed to hypoxia (10% O2) for 3 weeks. […] All data were analyzed using the PowerLab data acquisition system (AD Instruments, Bella Vista, Australia) and were averaged over 50 sequential beats (Non-patent Literatures 4 to 6).
Formaldehyde-fixed dry hearts were dissected and the right ventricular free wall (RV) was removed from the left ventricle (LV) and septum. The ratio of right ventricular free wall (RV) weight to left ventricle plus septum (LV+Septum) weight [RV/(LV+S)] was measured to assess the extent of RVH (Non-patent Literature 4). […]

[3] = 5 mg/kg/day intraperitoneal, daily for 28 days
[4] = 5 mg/kg/day oral, daily for 28 days
[5] = 1 mg/kg/day intraperitoneal, alternate days for 28 days

CC(=O)OC1C(c2ccc(=O)oc2)C2(C)CCC3C(CCC4(O)CC(O)CCC34C)C23OC13 [cinobufotalin, [(1R,2R,2aR,3aS,5aS,7S,9aR,11aR)-5a,7-dihydroxy-9a,11a-dimethyl-1-(2-oxo-2H-pyran-5-yl)hexadecahydronaphtho[1′,2′:6,7]indeno[1,7a-b]oxiren-2-yl acetate]]
right ventricular hypertrophy (RV/(LV+Septum)) vs control group [1, 3]: significantly reduced | right ventricular systolic pressure vs control group [1, 3]: significantly reduced

C[n+]1cc2c3c(ccc2c2ccc4cc5c(cc4c21)OCO5)OCO3 [sanguinarine]
SeP expression in the lungs (SeP): significantly reduced | influence on body weight vs vehicle control [2]: no significant differences; also recorded: no influence | influence on food consumption vs vehicle control [2]: no significant differences; also recorded: no influence | right ventricular hypertrophy (RV/(LV+Septum)) vs control group [1, 4]: significantly reduced | right ventricular systolic pressure vs control group [1, 4]: significantly reduced | selenoprotein P protein expression in the lungs vs control (selenoprotein P protein): significantly suppressed | RVH [RV/(LV+S)] vs vehicle controls (Sugen/hypoxia rat model): reduced | RVSP vs vehicle controls (Sugen/hypoxia rat model): reduced

COC(=O)[C@]1(C)CC[C@]2(C)CC[C@]3(C)C4=CC=C5C(=CC(=O)C(O)=C5C)[C@]4(C)CC[C@@]3(C)[C@@H]2C1 [pristimerin, methyl (2R,4aS,6aS,12bR,14aS,14bR)-10-hydroxy-2,4a,6a,9,12b,14a-hexamethyl-11-oxo-1,2,3,4,4a,5,6,6a,11,12b,13,14,14a,14b-tetradecahydropicene-2-carboxylate]
right ventricular hypertrophy (RV/(LV+Septum)) vs control group [1, 5]: significantly reduced | right ventricular systolic pressure vs control group [1, 5]: significantly reduced
